Results as given in patent publication US11407741B2, “Compounds and their use as selective inhibitors of caspase-2” (priority 2017, dated 2022).
Where a SMILES comes first, the peptide text is derived from it. [ ]: non-standard residue; d: D form. The star is where a group is joined. Pro(3S-CH2tBu) = CC(C)(C)C[C@H]1CCN[C@@H]1C(=O)O; Quinaldoyl = O=C(c1ccc2ccccc2n1)*; X1 = c1ncc(CO*)s1

Legend:
[1] = tested on: HeLa cells; experiment: Protection against vincristine-induced cell death, propidium iodide flow cytometry; format: cell-based, human; design: Index of cell death: key to the marks not given beside the values
Description: Human HeLa cells are used in this model. HeLa cells (cervical cancer cell line) were obtained from American Type Cell Collection (ATCC), and were cultured in Dulbecco's Modified Eagle Medium (DMEM, High Glucose, GlutaMAX™, Pyruvate) (Gibco, Life technologies), supplemented with 10% FCS and antibiotics (Gibco, Life technologies).
Human HeLa cells are treated with a solution of Vincristine (Sigma Aldrich) (diluted in water at 5 mM). Vincristine works partly by binding to the Tubulin protein, stopping the cell from separating its chromosomes during the metaphase; the cell then undergoes apoptosis through a caspase-dependent process.
Propidium iodide (PI) (Sigma Aldrich) is used to evaluate plasma membrane permeabilisation, a sign of cell death.
24 hours before pharmacological treatment, HeLa cells were plated into 24-well plates. […] Cells were exposed or not (control), to 20 nM Vincristine for 48 hours.
The content of each well is collected is added to PBS and then centrifuged (900 rpm; 5 min).
The pellet obtained is put into 300 μL of a medium comprising propidium iodide and incubated (37° C., 5% CO2) in the dark for 5 minutes and then subjected to flow cytometry analysis.
Fluorescence-Activated Cell Sorting was performed using a FACSCalibur cytometer (Becton Dickinson, San Jose, Calif.). For each sample, data from 5,000 Cells were registered and analyzed with the CellQuest Pro software (Becton Dickinson). Analysis included FSC (Forward Scatter/relating to the cells'size) and SSC (Side Scatter/relating to the cells' granularity) parameters together with FL-1 and FL-3 channel.
The percentage of propidium iodide positive cells gives an estimation of cell death.

[2] = molecular target: T1, Casp-2 (Homo sapiens, UniProt P42575); experiment: Caspase-2 inhibition assay for reversible inhibitors (IC50, Ki, dilution method); format: biochemical
T1 construct: the Caspase-2 and Caspase-3 are human recombinant active enzymes; purchased Enzo Life ALX-201-057-U100
T1 sequence (P42575 170-325 limits assumed): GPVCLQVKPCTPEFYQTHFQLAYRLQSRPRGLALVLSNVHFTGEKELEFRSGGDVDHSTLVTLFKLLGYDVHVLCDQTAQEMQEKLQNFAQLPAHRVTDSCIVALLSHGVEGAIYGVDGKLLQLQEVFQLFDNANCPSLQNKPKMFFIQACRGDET
T1 sequence (P42575 348-452 limits assumed): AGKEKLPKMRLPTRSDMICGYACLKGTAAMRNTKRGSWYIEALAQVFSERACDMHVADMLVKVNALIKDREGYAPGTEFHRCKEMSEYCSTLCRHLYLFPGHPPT
Description: (§1) A preliminary step in the characterization of an inhibitor is the determination of its IC50. The IC50 is the necessary concentration of an inhibitor to decrease the enzyme activity by 50% of its maximum and uninhibited value.
(§2) The compound, at different concentrations, is incubated with the enzyme and buffer for 30 minutes at 37° C. to allow formation of the Enzyme-Inhibitor complex. The reaction is initiated by addition of buffer and substrate, and then activity is measured over 15 minutes for the determination of initial velocities.
(§3) The enzyme and the inhibitor (or DMSO as control) are incubated for 30 minutes at 37° C. The complex thus formed is diluted to 100th in the buffer/substrate mixture and then the activity measurement is started over 20 minutes. The initial rate obtained for the DMSO represents the 100% activity and will serve as a reference for the quantification of the residual activity of the enzyme in the presence of the inhibitor.
(§4) The reaction is started over 20 minutes upon addition of the buffer-substrate mixture.
(§5) Initial velocity values in RFU·min^−1 are reduced to Specific Activity (SA)values (pmol/min/μg enzyme) from an AMC standard range (1 RFU→0.02 pmol).
(§6) The evolution of the ratio 1/SA as a function of 1/[S] makes it possible to obtain the so-called double-inverse graph of Lineweaver-Burk from equation 4 (eq.4) where Vmaxapp and KMapp are the parameters which vary according to the type inhibition and as a function of inhibitor concentration. The intersection of the lines obtained for increasing inhibitor concentrations makes it possible to distinguish different types of inhibitors.
A secondary graph, obtained from the values of the slopes of the Lineweaver-Burk plot as a function of the concentration of inhibitor, makes it possible to obtain the value of the Ki. Its value is given by the abscissa point at the origin.
The initial velocity V0 is expressed from equation 8 (eq.8), where Vmax is the maximum reaction rate (reached when the enzyme is saturated with substrate), [S] the substrate concentration, KM is the Michaelis-Menten constant (substrate concentration corresponding to Vmax/2), Ki is the dissociation constant which accounts for the affinity of the inhibitor for the enzyme.

[3] = molecular target: T2, Caspase-3 (Homo sapiens, UniProt P42574); experiment: Caspase-3 inhibition assay for reversible inhibitors (IC50, Ki); format: biochemical; details: compared with Ac-VDVAD-CHO
T2 construct: the Caspase-2 and Caspase-3 are human recombinant active enzymes; purchased R&D Systems 707-C3-010/CF
T2 sequence (P42574 29-175 limits assumed): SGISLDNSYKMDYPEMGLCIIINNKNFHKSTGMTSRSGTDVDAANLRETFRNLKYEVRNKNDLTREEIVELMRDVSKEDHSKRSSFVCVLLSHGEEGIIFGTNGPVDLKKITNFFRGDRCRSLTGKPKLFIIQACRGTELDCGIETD
T2 sequence (P42574 176-277 limits assumed): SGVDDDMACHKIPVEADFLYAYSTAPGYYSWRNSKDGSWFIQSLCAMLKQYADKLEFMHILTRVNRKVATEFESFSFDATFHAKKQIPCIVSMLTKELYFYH
Description: as §1, §2, §3, §4, §5, §6
A secondary graph, obtained from the values of the slopes of the Lineweaver-Burk plot as a function of the concentration of inhibitor, makes it possible to obtain the value of the Ki. Its value is given by the abscissa point at the origin. […]

Structure (SMILES): CC(C)[C@H](NC(=O)c1ccc2ccccc2n1)C(=O)N[C@@H](CC(=O)O)C(=O)N[C@H](C(=O)N1CC[C@H](CC(C)(C)C)[C@H]1C(=O)N[C@@H](CC(=O)O)C(=O)OCc1cncs1)C(C)C [Compound 3, (S)-4-(((S)-1-((2S,3S)-2-(((S)-3-carboxy-1-oxo-1-(thiazol-5 - ylmethoxy)propan-2-yl)carbamoyl)-3-neopenthylpyrrolidin-1-yl)-3-methyl-1-oxobutan-2-yl)amino)-3-((S)-3-methyl-2-(quinoline-2-carboxamido)butanamido)-4-oxobutanoic acid] (Quinaldoyl-VDV[Pro(3S-CH2tBu)]D-X1)
- Index of cell death ([1]; 20 nM Vincristine for 48 hours, propidium iodide positive cells): ++
- Protection against apoptotic death induced by vincristine ([1]; compound added 1 hour before vincristine): protect the cells against apoptotic death induced by vincristine in a dose-dependent manner
- Selectivity Indexes (KiCasp3/KiCasp2) [2]: >>1000
- potency on Casp-2 [2]: still powerful on Casp-2
- type of inhibition (reversible), dilution method [2]: reversible inhibitor
- Casp-2 selectivity ([2]; from IC50 on Casp-2 and Caspase-3): Casp2-selective
- potency on Caspase-3 [3]: considerably less potent on Caspase-3 than Ac-VDVAD-CHO
